Measured values: patent publication US20150087610A1, “Method of Modifying Fertility” (Monell Chemical Senses Center, priority 2012, published 2015)
Entries after “also recorded” stand apart in the source; their conditions may differ.

Experiments:
human T2r14 = target: T1, human T2r14 (Homo sapiens, UniProt Q9NYV8); details: heterologously expressed, most sensitive of five human T2rs; cited from earlier work
T1 sequence (Q9NYV8 1-317): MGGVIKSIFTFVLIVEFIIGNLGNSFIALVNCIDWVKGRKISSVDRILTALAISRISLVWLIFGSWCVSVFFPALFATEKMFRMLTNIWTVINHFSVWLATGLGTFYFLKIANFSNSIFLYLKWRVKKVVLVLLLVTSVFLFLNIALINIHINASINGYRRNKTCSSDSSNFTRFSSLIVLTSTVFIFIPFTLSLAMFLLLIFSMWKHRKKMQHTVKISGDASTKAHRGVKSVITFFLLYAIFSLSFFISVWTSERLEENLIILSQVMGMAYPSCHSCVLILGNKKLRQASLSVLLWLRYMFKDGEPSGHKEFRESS

mouse spermatids = test: Calcium imaging of mouse spermatids with bitter tastants; assay type: cell-based; details: Mus musculus, read-out: EC50 of calcium response
Experimental: Eight adult male mice of each genotype: C57BL/6 and Gnat^−/− mice, were sacrificed, and the testis and caudal epididymis were immediately removed and transferred into HS solution containing (mM): 135 NaCl, 5 KCl, 2 CaCl2, 1 MgCl2, 30 Hepes, 10 glucose, 10 lactic acid, and 1 pyruvic acid (pH adjusted to 7.4 with NaOH) (Xia et al., 2007). For isolation of spermatids, seminiferous tubules from mouse testicle were dissected out and placed in a […] containing 3 ml of HS medium. The tissue was finely minced and gently triturated with a fire-polished pipette, and the mixture was filtered with a 100 μm nylon cell strainer (BD Falcon, Bedford, Mass.). The dissociated cells were collected in a 1.5 ml plastic tube, and washed once in HS medium by centrifugation at 300 g for 4 min and resuspended in HS medium.
(§1) Mouse spermatogenic cells were loaded with 5 μM acetoxymethylester of Fura-2 (Fora-2/AM) and 80 μg/ml pluronic F127 (Molecular Probes, Eugene, Oreg.) and transferred onto coverslips (22×60 mm, No. 0, Thomas Scientific Co.) for at least 1 hour at room temperature. The coverslip with spermatogenic cells was mounted in a recording chamber and superfused with HS or HS containing tasting compounds or the bitter blocker probenecid (Sigma-Aldrich, St. Louis, Mo.) via a valve controller (VC-8, Warner, USA).
(§2) Imaging of calcium responses was conducted as previously described (Gomez et al, 2005). Stimulation duration was 30 seconds and perfusion rate was 0.8 ml/min. Cells were excited at 340 nm and 380 nm and signals at 510 nm were captured by a cooled CCD camera. The change in fluorescence ratio (F=F340/F380) was recorded for regions-of-interest drawn on the cells.
To analyze the dose-dependent calcium responses, the response intensity (FN) was normalized and expressed as ΔF/F0 value: ΔF/F0=(F−F0)/F0. Here F0 is the fluorescence at the beginning of stimulation, i.e., time 0, and F is the peak fluorescence ratio evoked by the stimulation. Dose-response curves and EC50 values were generated based on the normalized responses using the software Origins by nonlinear regression.

human T2R38 = target: T2, human T2R38 (Homo sapiens, UniProt P59533); details: response to PTC and PROP; cited from earlier work
T2 sequence (P59533 1-333): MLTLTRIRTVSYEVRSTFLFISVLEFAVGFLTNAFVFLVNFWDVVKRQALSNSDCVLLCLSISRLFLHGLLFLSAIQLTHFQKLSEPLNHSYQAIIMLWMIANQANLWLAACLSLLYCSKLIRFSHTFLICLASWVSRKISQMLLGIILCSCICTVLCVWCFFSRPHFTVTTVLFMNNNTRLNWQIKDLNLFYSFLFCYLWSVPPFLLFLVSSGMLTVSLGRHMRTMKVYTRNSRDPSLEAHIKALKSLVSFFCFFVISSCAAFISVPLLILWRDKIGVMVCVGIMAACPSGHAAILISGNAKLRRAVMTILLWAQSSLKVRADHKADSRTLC

human T2R43 = target: T3, human T2R43 (Homo sapiens, UniProt P59537); details: response to aloin; cited from earlier work
T3 sequence (P59537 1-309): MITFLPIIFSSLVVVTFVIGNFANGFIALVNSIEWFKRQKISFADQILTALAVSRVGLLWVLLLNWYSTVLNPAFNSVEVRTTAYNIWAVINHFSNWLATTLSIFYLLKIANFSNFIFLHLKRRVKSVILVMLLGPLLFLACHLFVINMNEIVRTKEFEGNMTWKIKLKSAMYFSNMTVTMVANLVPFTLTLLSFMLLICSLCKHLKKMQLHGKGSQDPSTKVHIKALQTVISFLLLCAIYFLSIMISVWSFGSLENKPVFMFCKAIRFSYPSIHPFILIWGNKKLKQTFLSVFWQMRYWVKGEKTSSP

C57B/6L wild-type sperm = test: Bitter blocker probenecid on calcium responses of wild-type mouse sperm; assay type: cell-based; details: for effect of blocker on response to PTC: preincubation 5 min, 0.3 mM PTC; for response to PTC after wash-off of blocker: after wash-off of 1 mM probenecid
Experimental: as §1, §2
To confirm whether the germ cells' responses to bitter tastants were mediated by the bitter taste receptors, we examined the effect of the bitter taste receptor blocker probenecid (Greene et al, 2001) and nullification of the α-gustducin gene in Gnat3 α-gustducin knockout mice described in Wong et al, 1996. Probenecid is known to inhibit the responses of human T2R16, 38 and 43 to salicin, PTC and PROP, and aloin, but not that of T2R31 to saccharin (Greene et al, 2011).

human T2R16 = target: T4, human T2R16 (Homo sapiens, UniProt Q9NYV7); details: response to salicin; cited from earlier work
T4 sequence (Q9NYV7 1-291): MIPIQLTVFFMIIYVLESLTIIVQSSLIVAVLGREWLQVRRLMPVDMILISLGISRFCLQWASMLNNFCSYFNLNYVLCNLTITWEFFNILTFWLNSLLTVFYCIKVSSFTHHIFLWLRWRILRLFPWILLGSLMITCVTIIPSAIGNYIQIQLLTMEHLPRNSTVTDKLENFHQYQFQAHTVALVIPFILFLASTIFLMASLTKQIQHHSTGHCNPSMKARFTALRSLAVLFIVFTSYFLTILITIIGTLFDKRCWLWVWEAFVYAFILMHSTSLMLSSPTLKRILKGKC

Row | SMILES | EC50 (human T2r14) [µM] | EC50 (mouse spermatids) [µM] | inhibition of receptor response (human T2R38) | inhibition of receptor response (human T2R43) | effect of blocker on response to cycloheximide (C57B/6L wild-type sperm; 1 mM probenecid) | effect of blocker on response to PTC (C57B/6L wild-type sperm; 1 mM probenecid) | effect of blocker on response to PTC (C57B/6L wild-type sperm; 1 mM probenecid, listed as prebenecid) | response to PTC after wash-off of blocker (C57B/6L wild-type sperm) | response to PTC after wash-off of blocker (C57B/6L wild-type sperm; listed as prebenecid) | inhibition of receptor response (human T2R16)
1 | CC(C)(O)[C@@H]1[C@H]2OC(=O)[C@@H]1[C@]1(O)C[C@H]3O[C@]34C(=O)O[C@H]2[C@]14C [picrotin] | 18 | 20 ± 10 |  |  |  |  |  |  |  | 
2 | CCCN(CCC)S(=O)(=O)c1ccc(C(=O)O)cc1 [probenecid] |  |  | inhibit | inhibit | did not block; also recorded: no inhibitory effect | nearly undetectable | nearly completely suppressed | partially recovered | restored | inhibit
